Values quoted from earlier work, collected in US20020137692A1, “Novel compositions of potassium channel openers and protein kinase C inhibitors and use thereof” (Pharmacia AB, priority 2001, published 2002).

Row | Compound | stimulation of hair keratinocytes (hair keratinocytes) | hair growth stimulation (C3H mouse) | anagen induction in vivo (hair growth)
1 | Oc1cc(O)c2c(c1)O[C@H](c1ccc(O)c(O)c1)[C@H](O)[C@H]2c1c(O)cc(O)c2c1O[C@H](c1ccc(O)c(O)c1)[C@@H](O)C2 [procyanidin B1] | stimulation of hair keratinocytes | hair growth stimulation | –
2 | calphostin C | – | – | marked anagen induction
3 | Oc1cc(O)c2c(c1)O[C@H](c1ccc(O)c(O)c1)[C@H](O)[C@H]2c1c(O)cc(O)c2c1O[C@H](c1ccc(O)c(O)c1)[C@H](O)C2 [procyanidin B2] | stimulation of hair keratinocytes | hair growth stimulation | marked anagen induction
4 | polymyxin B sulfate | – | – | marked anagen induction
5 | Oc1cc(O)c2c(c1)O[C@H](c1ccc(O)c(O)c1)[C@H](O)[C@H]2c1c(O)cc(O)c2c1O[C@H](c1ccc(O)c(O)c1)[C@H](O)[C@H]2c1c(O)cc(O)c2c1O[C@H](c1ccc(O)c(O)c1)[C@H](O)C2 [procyanidin C1] | stimulation of hair keratinocytes | hair growth stimulation | marked anagen induction
6 | CCCCCCCCCCCCCCCC(=O)OC(CC(=O)O)C[N+](C)(C)C.[Cl-] (racemic) [palmitoyl-DL-carnitine chloride] | – | – | marked anagen induction
7 | CCCCCCCCCCCCCCCCOP(=O)([O-])OCC[N+](C)(C)C [hexadecylphosphocholine] | – | – | marked anagen induction
8 | Oc1cc(O)c2c(c1)O[C@H](c1ccc(O)c(O)c1)[C@@H](O)[C@@H]2c1c(O)cc(O)c2c1O[C@H](c1ccc(O)c(O)c1)[C@@H](O)C2 [Solution B3, procyanidin B3] | stimulation of hair keratinocytes | hair growth stimulation | –
